# Measurements reported in US20240050409A1, “Methods and Compositions for Treating Psychotic Disorders” (SOUND PHARMACEUTICALS INCORPORATED, priority 2014, published 2024).
# Entries after “also recorded” stand apart in the source; their conditions may differ.
# Legend:
# NVHL rats = assay: Mismatch negativity (MMN), auditory evoked potentials, NVHL rats; assay type: in vivo, Sprague-Dawley rats; details: juvenile treatment
# Description: Abnormal excitation-inhibition balance in adult NVHL rats can yield altered information processing that would be prevented by NAC treatment if it depended on oxidative stress. Mismatch negativity (MMN) was tested using auditory evoked potentials in an oddball paradigm in SHAM (n=6), NVHL (n=3), and NAC-treated NVHL rats (n=3). MMN has high translational relevance, as it is attenuated in schizophrenia patients (Javitt et al., 1993) and in animal models (Ehrlichman et al., 2009). Electroencephalographic (EEG) electrodes were implanted in NVHL, NAC-treated NVHL, and SHAM rats. This observation is consistent with the effect of NAC on MMN in patients (Lavoie et al., 2008), and indicates the NVHL model reproduces an important disease marker that can be prevented by juvenile antioxidant treatment. As MMN depends on NMDA receptor function (Umbricht et al., 2000) and NMDA hypofunction in PVI is suspected in schizophrenia, it is possible that MMN improvement with NAC results from restored PVI activity. […]
# Mismatch Negativity: NVHL, NAC-treated NVHL, and sham female rats were implanted with chronic EEG electrodes under isoflurane anesthesia. […] A difference wave was constructed by subtracting the standard wave from the deviant wave, and MMN was quantified by measuring the area under the curve in the period between 35 and 100 ms after the stimulus. […]
# [1] = tested on: dopamine D2-dependent modulation of EPSPs in PFC pyramidal cells of NVHL rats; assay: Slice electrophysiology: D2 (quinpirole) modulation of EPSPs in PFC layer V pyramidal cells of NVHL rats; assay type: in vivo, Sprague-Dawley rats; details: adult NVHL rat PFC slices, quinpirole 5 μM; treatment during development
# Description: If juvenile oxidative stress is the cause of physiological anomalies observed in adult NVHL rats, NAC treatment can rescue these alterations. Whole-cell recordings were conducted from pyramidal neurons in adult brain slices containing the medial PFC of SHAM (n=12), NVHL (n=16), and NAC-treated NVHL rats (n=14). As previously shown in adult NVHL rats and other rodent models of schizophrenia (Niwa et al., 2010; Tseng et al., 2008), the dopamine D2-dependent modulation of excitatory postsynaptic potentials (EPSPs) in layer V pyramidal cells was lost in NVHL rats (as shown in FIGS. 13A-C). This loss is likely due to abnormal maturation of PFC interneurons, as the normal adult D2 modulation includes a GABA-A receptor component (Tseng and O'Donnell, 2007), but oxidative stress in pyramidal neurons may also play a role. To determine whether altered PVI-dependent PFC synaptic responses are due to oxidative stress, rats were treated with NAC during development and then tested for D2 modulation of PFC physiology.
# Antioxidant pretreatment regimen: NAC (BioAdvantexPharma, Mississauga, Ontario, Canada) was administered in the drinking water at 900 mg/l. NAC treatment started at P5 or at P35, and previous work in mice has shown that NAC consumed by the dam is transmitted to the pups through her milk (das Neves Duarte et al., 2012). NAC treatment ended at P50. […]
structure (smiles),measurement,setting,value
"CC(=O)N[C@@H](CS)C(=O)O [NAC, N-acetyl cysteine]",effect on MMN deficit,NVHL rats,improving
same,effect on lost D2 modulation (quinpirole attenuation) of EPSPs,[1],rescued; also recorded: reverses
